In article PMC6695453, “Peptide translocation by the lysosomal ABC transporter TAPL is regulated by coupling efficiency and activation energy” (Scientific Reports, 2019):

Experiments:
P-gp = conditions: cited from earlier work
Description: Other ABC transporters like P-glycoprotein have a biphasic substrate dependent ATPase activity. […] Basal ATPase activity of MRP1 is 3-fold stimulated by its substrate leucotriene C4, which forms contacts to both halfs o ...

TAPL = target: T1, TAPL (Homo sapiens, UniProt Q9NP78); conditions: GTP vs ATP; cited from earlier work
T1 construct: Human coreTAPL (Q9NP78 UniProt, amino acid 143–766) fused C-terminally to mVenus; made in house; host or cells: Pichia pastoris SMD1168-His+
T1 sequence (Q9NP78 143-766): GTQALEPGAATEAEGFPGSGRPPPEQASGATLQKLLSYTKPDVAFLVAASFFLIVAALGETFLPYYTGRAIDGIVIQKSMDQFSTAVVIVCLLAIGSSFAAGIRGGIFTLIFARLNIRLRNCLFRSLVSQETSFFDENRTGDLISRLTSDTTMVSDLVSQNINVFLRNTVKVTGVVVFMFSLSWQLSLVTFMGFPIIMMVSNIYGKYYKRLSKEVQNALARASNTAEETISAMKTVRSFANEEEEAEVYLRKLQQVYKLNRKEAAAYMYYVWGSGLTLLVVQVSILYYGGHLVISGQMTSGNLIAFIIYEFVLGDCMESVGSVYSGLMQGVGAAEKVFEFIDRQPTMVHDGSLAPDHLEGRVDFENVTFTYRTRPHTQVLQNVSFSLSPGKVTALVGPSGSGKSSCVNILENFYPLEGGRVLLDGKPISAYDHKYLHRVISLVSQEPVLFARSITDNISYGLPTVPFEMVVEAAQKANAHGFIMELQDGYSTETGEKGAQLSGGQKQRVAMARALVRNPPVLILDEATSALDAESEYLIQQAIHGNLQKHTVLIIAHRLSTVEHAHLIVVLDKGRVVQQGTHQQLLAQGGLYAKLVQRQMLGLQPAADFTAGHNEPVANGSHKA
Description: To decipher the coupling between nucleotide hydrolysis and peptide transport, we intended to reduce futile hydrolysis cycles without translocating peptides. Assuming a kinetic effect where ATP binding and subsequent ATP hydrolysis is much faster than peptide binding, a more stoichiometric coupling should be obtained with decreasing ATP concentrations. Therefore, we determined Michaelis-Menten kinetics of nucleotide hydrolysis and peptide transport with decreasing nucleotide concentrations. For sensitivity reasons, we switched from the colorimetric malachite green based assay to a radioactive b ...

TmrAB = TmrAB (Thermus thermophilus, UniProt Q72J04+Q72J05); test: NTP dependent peptide transport by TmrAB; conditions: 68 °C, 9-mer^FL peptide
PatA/PatB = conditions: transport and NTP hydrolysis, 37 °C; cited from earlier work
Description: Both nucleotides show the same Km and kcat values in respect of NTP hydrolysis. […] NTP dependent transport was found also for other ABC transporters. […] The full-length ABC transport Pdr5 from yeast hydrolyzes GTP and even UTP, but ...

| SMILES | effect on P-gp transport and ATP hydrolysis (in words) (P-gp) | fuelling of peptide transport vs ATP (in words) (TAPL) | fold decreased transport rate for GTP compared to ATP, TmrAB (TmrAB) | nucleotide preference of PatA/PatB (in words) (PatA/PatB) |
| --- | --- | --- | --- | --- |
| O[C@@H](COc1cccc2ncccc12)CN1CCN([C@@H]2c3ccccc3[C@@H]3[C@H](c4ccccc42)C3(F)F)CC1 [Zosuquidar] | inhibits transport but stimulates ATP hydrolysis | – | – | – |
| Nc1nc2c(ncn2[C@@H]2O[C@H](COP(=O)(O)OP(=O)(O)OP(=O)(O)O)[C@@H](O)[C@H]2O)c(=O)[nH]1 [GTP] | – | to a lower extend than ATP | 6 fold | strongly prefers GTP over ATP |
